Assay results reported in article PMC9228535, “Antistaphylococcal Activities and ADME-Related Properties of Chlorinated Arylcarbamoylnaphthalenylcarbamates” (Pharmaceuticals, 2022).
In brackets after ≈: the same amount, converted by molar mass. Read-outs that look alike come from different tables or passages of the source.

Columns and labels:
[1] = test system: Staphylococcus aureus ATCC 29213; experiment: MIC, microtitration broth method; format: cell-based; details: ATCC29213, SA = S. aureus ATCC 29213, 24 h, read-out: MIC
Protocol: (§1) All the investigated compounds were screened for in vitro antibacterial activity against the reference and quality control strain Staphylococcus aureus ATCC 29213 and clinical isolates of methicillin-resistant S. aureus (MRSA) 63718, SA 630, and SA 3202 [14]. Activities are expressed as the minimum inhibitory concentrations (MICs), see Table 2. In addition to the MICs, the minimum bactericidal concentrations (MBCs) were also determined.
(§2) In vitro antibacterial activity of the synthesized compounds was evaluated against representatives of multidrug-resistant bacteria, three clinical isolates of methicillin-resistant S. aureus: clinical isolate of animal origin, MRSA 63718 (Department of Infectious Diseases and Microbiology, Faculty of Veterinary Medicine, University of Veterinary Sciences Brno, Czech Republic), carrying the mecA gene; and MRSA SA 630 [46] and MRSA SA 3202 [46] (National Institute of Public Health, Prague, Czech Republic), both of human origin. Suspected colonies were confirmed by PCR; a 108bp fragment specific for S. aureus was detected. All isolates were tested for the presence of the mecA gene encoding methicillin resistance. […] Vancomycin-susceptible methicillin-susceptible S. aureus (VS-MSSA) ATCC 29213, obtained from the American Type Culture Collection, was used as the reference and quality control strain. Enterococcus faecalis ATCC 29212 was obtained from the American Type Culture Collection and used as the reference and quality control strain.
(§3) The minimum inhibitory concentrations (MICs) were evaluated by the microtitration broth method according to the CLSI [64, 65] with some modifications. The compounds were dissolved in DMSO (Sigma, St. Louis, MO, USA) to get a concentration […] and diluted in a microtitration plate in an appropriate medium, namely, Cation Adjusted Mueller–Hinton (CaMH, Oxoid, Basingstoke, UK) for staphylococci (S. aureus ATCC 29213, clinical isolates of MRSA 63718, SA 630, and SA 3202) and brain heart infusion (BHI, Oxoid) for E. faecalis ATCC 29212, to reach the final concentration of 256-0.125 µg/mL. The plate was inoculated by the tested microorganisms. The final concentration of bacterial cells was 10^5 for bacteria. Ampicillin (Sigma) was used as reference drugs. A drug-free control and a sterility control were included. The plates were incubated for 24 h at 37 °C for staphylococci and E. faecalis ATCC 29212 (stability evaluation of the carbamates, see Supplementary materials, Table S1). […] The experiments were repeated three times.

MRSA 63718 [2] = experiment: MIC, microtitration broth method; format: cell-based; details: Staphylococcus aureus, MRSA, 24 h
Protocol: as §1, §2, §3

MRSA SA 630 [3] = experiment: MIC, microtitration broth method; format: cell-based; details: Staphylococcus aureus, 24 h
Protocol: as §1, §2, §3

MRSA SA 3202 [4] = experiment: MIC, microtitration broth method; format: cell-based; details: Staphylococcus aureus, 24 h
Protocol: as §1, §2, §3

[5] = test system: Staphylococcus aureus ATCC 29213; experiment: MBC, agar aliquot subculture method; format: cell-based; details: ATCC29213, SA = S. aureus ATCC 29213, read-out: MBC
Protocol: as §1
(§4) For the S. aureus and MRSA isolates, the agar aliquot subculture method was used as a test for bactericidal agents. After the MIC value determination, the inoculum was transferred to Mueller–Hinton (Oxoid) agar using a multipoint inoculator. The plates were incubated in a thermostat at 37 °C for 24 h. The lowest concentration of test compound at which ≤5 colonies were obtained was then evaluated as MBC, corresponding to a 99.9% decrease in CFU relative to the original inoculum.

MRSA 63718 [6] = experiment: MBC, agar aliquot subculture method; format: cell-based; details: Staphylococcus aureus, MRSA
Protocol: as §1, §4

MRSA SA 630 [7] = experiment: MBC, agar aliquot subculture method; format: cell-based; details: Staphylococcus aureus
Protocol: as §1, §4

MRSA SA 3202 [8] = experiment: MBC, agar aliquot subculture method; format: cell-based; details: Staphylococcus aureus
Protocol: as §1, §4

[9] = Lipophilicity determination by RP-HPLC (log k, log D); format: physicochemical; details: for log D6.5 / log D7.4 / log k: RP-HPLC; for log D6.5: MeOH 72%/acetate buffered saline pH 6.5; for log D7.4: MeOH 72%/acetate buffered saline pH 7.4; for log k: MeOH 72%/water 28%
Protocol: Lipophilicity was measured by reversed-phase high performance liquid chromatography (RP-HPLC) under isocratic conditions with methanol as the organic modifier in the aqueous mobile phase and the logarithm of the capacity factor k was calculated, which is used as the lipophilicity index converted to the log P scale. In addition to the log k values, the logarithm of the distribution coefficient DpH at pH 6.5 and 7.4 was determined to clarify the behavior of the compounds under physiological conditions and possible ionization. Instead of water, a buffer of suitable pH was used as part of the mobile phase. In addition to the above-mentioned experimental methods, commercially available ChemBioDraw Ultra 13.0 and ACD/Percepta ver. […] In addition to lipophilicity, other parameters discussed in Ro5, such as molecular weight, number of H-bond donors/acceptors, as well as parameters not reported in Ro5, but characterizing the physicochemical properties of the prepared molecules, such as number of rotatable bonds, were predicted using ACD/Percepta. Moreover, for each R substituent, bulkiness expressed as molar volume (MV [cm^3]), a parameter describing the tail length/branching of each carbamates, was calculated.
A HPLC separation module Agilent 1200 Series (Agilent Technologies, Santa Clara, CA, USA) equipped with a Dual Absorbance Detector (DAD SL G1315C, Agilent Technologies) was used. A chromatographic column Symmetry® C18 5 μm, 4.6 × 250 mm, Part No. W21751W016 (Waters Corp, Milford, MA, USA) was used. The HPLC separation process was monitored by ChemStation for LC 3D systems (Agilent Technologies). […] The total flow of the column was 1.0 mL/min, injection 20 μL, column temperature 40 °C, and sample temperature 10 °C. The detection wavelength of 210 nm was chosen. A KI methanolic solution was used for the determination of the dead times (tD). Retention times (tR) were measured in minutes. The capacity factors k were calculated according to the formula k = (tR − tD)/tD, where tR is the retention time of the solute, and tD is the dead time obtained using an unretained analyte. The distribution coefficients DpH were calculated according to the formula DpH = (tR − tD)/tD. Each experiment was repeated three times.

THP-1 cells = experiment: In vitro cytotoxicity assay (WST-1); format: cell-based; details: Homo sapiens; THP-1, 24 h, ± SD, n = 6; read-out: IC50
Protocol: Preliminary in vitro cytotoxicity screening of the investigated compounds was performed using human monocytic leukemia THP-1 cells, see Table 2. The ability to inhibit the human cancer cell viability (IC50) of the compounds was compared to camptothecin toxicity (0.16 ± 0.07 μM). […] However, these values are up to two orders of magnitude higher than their significant antistaphyloccocal concentrations. This fact is also taken into account in the calculated selectivity index (SI), Table 2, where for only three compounds the SI is <20, while for the rest of the agents SI is >20, and for some derivatives even 100 and more. Thus, based on all these observations, it can be concluded that all the tested derivatives can be considered as in vitro non-toxic compounds for the subsequent design of new therapeutic agents.
The human THP-1 cell line (European Collection of Cell Cultures, Salisbury, UK) was cultured in RPMI 1640 medium supplemented with 10% fetal bovine serum, 2% L-glutamine, 1% penicillin, and streptomycin at 37 °C with 5% CO2. Cells were passaged at approximately 1-week intervals. All the tested compounds were prepared and dissolved as mentioned in our previous work.

[10] = test system: Enterococcus faecalis ATCC 29212; experiment: MIC, microtitration broth method; format: cell-based; details: for MIC: ATCC29212, EF = Enterococcus faecalis, 24 h, read-out: MIC
Protocol: as §2, §3

SMILES	MIC [1]	MIC (MRSA 63718 [2])	MIC (MRSA SA 630 [3])	MIC (MRSA SA 3202 [4])	MBC [5]	MBC (MRSA 63718 [6])	MBC (MRSA SA 630 [7])	MBC (MRSA SA 3202 [8])	log D6.5 [9]	log D7.4 [9]	log k [9]	IC50 (THP-1 cells)	MIC [10]	lipophilicity (experimental log k/log D, approximate) [9]	anti-enterococcal activity (in words) ([10]; E. faecalis ATCC 29212)	lipophilicity (experimental log k/log D, approximate) ([9]; listed as 15)
CC(C)NC(=O)Oc1c(C(=O)Nc2cc(Cl)c(Cl)cc2Cl)ccc2ccccc12 [Compound 9, 2-[N-(2,4,5-Trichlorophenyl)carbamoyl]naphthalen-1-yl isopropyl carbamate]	0.018 µM (≈ 0.00813 µg/mL)	0.139 µM (≈ 0.0628 µg/mL)	0.035 µM (≈ 0.0158 µg/mL)	0.277 µM (≈ 0.125 µg/mL)	0.018 µM (≈ 0.00813 µg/mL)	0.139 µM (≈ 0.0628 µg/mL)	0.277 µM (≈ 0.125 µg/mL)	0.277 µM (≈ 0.125 µg/mL)	0.9579	1.0468	0.9526	3.26 ± 0.08 µM	142 µM (≈ 64.1 µg/mL)	–	–	–
O=C(NC1CCCC1)Oc1c(C(=O)Nc2cc(Cl)c(Cl)cc2Cl)ccc2ccccc12 [Compound 10, 2-[N-(2,4,5-Trichlorophenyl)carbamoyl]naphthalen-1-yl cyclopentyl carbamate]	0.262 µM (≈ 0.125 µg/mL)	0.262 µM (≈ 0.125 µg/mL)	0.262 µM (≈ 0.125 µg/mL)	2.09 µM (≈ 0.999 µg/mL)	0.262 µM (≈ 0.125 µg/mL)	0.262 µM (≈ 0.125 µg/mL)	1.05 µM (≈ 0.5 µg/mL)	2.09 µM (≈ 0.999 µg/mL)	1.1521	1.1515	1.1481	3.23 ± 0.29 µM	268 µM (≈ 128 µg/mL)	ca. 1.15	–	–
O=C(NC1CCCCC1)Oc1c(C(=O)Nc2cc(Cl)c(Cl)cc2Cl)ccc2ccccc12 [Compound 11, 2-[N-(2,4,5-Trichlorophenyl)carbamoyl]naphthalen-1-yl cyclohexyl carbamate]	0.128 µM (≈ 0.063 µg/mL)	0.254 µM (≈ 0.125 µg/mL)	0.508 µM (≈ 0.25 µg/mL)	0.508 µM (≈ 0.25 µg/mL)	0.508 µM (≈ 0.25 µg/mL)	0.508 µM (≈ 0.25 µg/mL)	1.02 µM (≈ 0.5 µg/mL)	0.508 µM (≈ 0.25 µg/mL)	1.2952	1.2955	1.2911	2.76 ± 0.24 µM	65.1 µM (≈ 32 µg/mL)	–	moderate activity	–
O=C(NC1CCCCCC1)Oc1c(C(=O)Nc2cc(Cl)c(Cl)cc2Cl)ccc2ccccc12 [Compound 12, 2-[N-(2,4,5-Trichlorophenyl)carbamoyl]naphthalen-1-yl cycloheptyl carbamate]	0.494 µM (≈ 0.25 µg/mL)	0.247 µM (≈ 0.125 µg/mL)	0.494 µM (≈ 0.25 µg/mL)	0.494 µM (≈ 0.25 µg/mL)	0.494 µM (≈ 0.25 µg/mL)	0.247 µM (≈ 0.125 µg/mL)	0.494 µM (≈ 0.25 µg/mL)	0.494 µM (≈ 0.25 µg/mL)	1.4492	1.4527	1.4469	3.24 ± 0.12 µM	127 µM (≈ 64.2 µg/mL)	ca. 1.45	–	–
O=C(NCCc1ccccc1)Oc1c(C(=O)Nc2cc(Cl)c(Cl)cc2Cl)ccc2ccccc12 [Compound 13, 2-[N-(2,4,5-Trichlorophenyl)carbamoyl]naphthalen-1-yl 2-phenylethyl carbamate]	0.062 µM (≈ 0.0319 µg/mL)	0.123 µM (≈ 0.0632 µg/mL)	0.062 µM (≈ 0.0319 µg/mL)	0.123 µM (≈ 0.0632 µg/mL)	0.062 µM (≈ 0.0319 µg/mL)	0.123 µM (≈ 0.0632 µg/mL)	0.973 µM (≈ 0.5 µg/mL)	0.243 µM (≈ 0.125 µg/mL)	1.2473	1.2470	1.2450	2.79 ± 0.28 µM	125 µM (≈ 64.2 µg/mL)	–	–	–
O=C(NCCCCc1ccccc1)Oc1c(C(=O)Nc2cc(Cl)c(Cl)cc2Cl)ccc2ccccc12 [Compound 14, 2-[N-(2,4,5-Trichlorophenyl)carbamoyl]naphthalen-1-yl 4-phenylbutyl carbamate]	0.116 µM (≈ 0.0629 µg/mL)	0.231 µM (≈ 0.125 µg/mL)	0.116 µM (≈ 0.0629 µg/mL)	0.231 µM (≈ 0.125 µg/mL)	0.116 µM (≈ 0.0629 µg/mL)	0.231 µM (≈ 0.125 µg/mL)	0.461 µM (≈ 0.25 µg/mL)	0.461 µM (≈ 0.25 µg/mL)	1.5193	1.5191	1.5167	2.73 ± 0.37 µM	118 µM (≈ 63.9 µg/mL)	ca. 1.25	–	ca. 1.52
